Reference: PMC6208908, “Field template-based design and biological evaluation of new sphingosine kinase 1 inhibitors” (Breast Cancer Research and Treatment, 2018)
Marks after values point to notes of the source that are not given here.

How the values were obtained:
SK1 mRNA = SK1 mRNA expression by qRT-PCR in MDA-MB-231 cells; assay type: cell-based, human; conditions: 1, 2, 5 and 10 µM, 24 h
Procedure: Isolation of total RNA from MDA-MB-231 cells was performed using the RNeasy Mini kit (Qiagen, Valencia, CA, USA) as per manufacturer’s instructions. RNA quantity and purity were measured using a NanoDrop ND-1000 Spectrophotometer (Thermo Fisher Scientific, Loughborough, UK). Reverse transcription was performed using precision nanoScript™ reverse transcription kit (PrimerDesign Ltd, Southampton, UK). qRT-PCR was done as already described. Ct values were exported and analysed using qbase software (Biogazelle NV, Zwijnaarde, Belgium).
Fig. 3 Effect of compounds SK-A to SK-F on SK1 mRNA levels. MDA-MB-231 cells were incubated with 1, 2, 5 and 10 µM of compounds SK-A to SK-F for 24 h. SK1 mRNA expression was measured by qRT-PCR. Columns, means of three independent experiments normalised to control; bars, SEM. (*p < 0.05; **p < 0.01)

[1] = Liver function tests in treated mice; assay type: in vivo, BALB/c nude mice; conditions: 5 mg/kg each drug i.p. twice a week for 2 weeks, compared with DTX
Procedure: (§1) Breast cancer allografts were established in 6–8-week-old BALB/c nude mice by injection of 10^6 4T1 cells into their mammary pad. Two weeks after implantation, mice were randomised into treatment groups (n = 6/group) and treated twice a week for 2 weeks with intraperitoneal injections of dimethyl sulfoxide (DMSO), 5 mg/kg DTX, 5 mg/kg SK-F, 5 mg/kg DTX + 5 mg/kg SK-F. One day after the last treatment, all mice were euthanized and blood was collected. Tumour long and short radii were measured using calipers and tumour volume (v) was calculated using the formula v = 4/3 πab^2 (a – long radius, b – short radius). Mice and individual organs were weighed and primary tumours were then processed for analysis of SK1 activity as described above. Full blood count and liver function test analysis was done in the Hammersmith hospital biochemical lab.
Fig. 6 Liver function tests of mice treated with SK-F and docetaxel (DTX). Breast cancer allografts were established in BALB/c nude mice by injection of 4T1 cells into their mammary pad. Two weeks after implantation, mice were randomised into treatment groups (n = 6/group) and treated twice a week for two weeks with intraperitoneal injections of: DMSO, 5 mg/kg DTX, 5 mg/kg SK-F, 5 mg/kg DTX + 5 mg/kg SK-F. a Alanine transaminases (ALT). b Bilirubin. c Aspartate transaminase (AST). d Albumin. e Alkaline phosphatase (ALP). f Total protein. Columns, mean of n = 6 animals normalised to control; bars, SEM. (*p < 0.05; **p < 0.01)

[2] = molecular target: T1, endogenous SK1 in MDA-MB-231 cells (Homo sapiens, UniProt Q9NYA1); assay: SK1 activity in lysates of treated MDA-MB-231 cells; assay type: cell-based; conditions: 6 h
T1 construct: We treated MDA-MB-231 cells with 1 µM of compounds SK-A – SK-F and SKI-II as the positive control for 6 h; endogenous in cells; host or cells: MDA-MB-231
T1 sequence (Q9NYA1 whole entry): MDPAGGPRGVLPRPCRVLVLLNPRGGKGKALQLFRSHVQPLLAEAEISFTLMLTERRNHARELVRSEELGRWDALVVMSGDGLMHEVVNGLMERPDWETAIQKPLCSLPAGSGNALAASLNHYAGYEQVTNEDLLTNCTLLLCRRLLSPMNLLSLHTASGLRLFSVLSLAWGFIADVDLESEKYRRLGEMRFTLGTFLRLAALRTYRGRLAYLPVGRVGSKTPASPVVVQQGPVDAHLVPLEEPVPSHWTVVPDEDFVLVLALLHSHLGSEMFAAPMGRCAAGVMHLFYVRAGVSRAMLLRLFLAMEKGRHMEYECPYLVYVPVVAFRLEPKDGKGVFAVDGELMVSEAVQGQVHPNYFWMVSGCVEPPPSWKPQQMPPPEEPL
Procedure: After incubation, cells were washed with ice-cold phosphate-buffered saline (PBS) and harvested.
SK assay was performed using radiolabeling as previously described, in conditions favouring SK1 or SK2 activity as required.
Fig. 2 Inhibition of sphingosine kinase 1 in cell-free extract and in vitro. a 1 µM of compounds SK-A to SK-F and SKI-II (commercial inhibitor of SK used as a positive control) were incubated in the presence of recombinant SK1 extract (in excess), 1 µM of ATP, and 1 µM exogenous sphingosine for 1 h. b MDA-MB-231 cells were incubated with 1 µM of compounds SK-A to SK-F and SKI-II for 6 h. SK1 activity was measured as described in materials and methods. Columns, means of three independent experiments normalised to vehicle; bars, SEM. (ns, non-significant; *p < 0.05; **p < 0.01)
Reportedly, among human tumour cell lines, the breast cancer cell line MDA-MB-231 expresses high levels of SK activity. We treated MDA-MB-231 cells with 1 µM of compounds SK-A – SK-F and SKI-II as the positive control for 6 h and analysed SK1 activity in the cell lysates using SK1 activity assay.

[3] = Whole-body toxicity: body and organ weights, full blood count; assay type: in vivo, BALB/c nude mice; conditions: 5 mg/kg each drug i.p. twice a week for 2 weeks, 4T1 tumour-bearing mice
Procedure: as §1
Tumour-bearing mice were divided into four groups (n = 6) and injected with: DMSO, 5 mg/kg DTX, 5 mg/kg SK-F, 5 mg/kg DTX + 5 mg/kg SK-F. Two weeks after the tumour cells inoculation, we began intraperitoneal injections of drug preparations and continued these twice a week for two weeks. Based on our previous studies, we have chosen relatively smaller doses of SK-F and DTX in order to investigate their combined effect and potential chemosensitisation of breast tumours to taxane therapies. In the control group, tumours grew progressively and rapidly (Fig. 5a). […] Five mg/kg DTX has induced a significant reduction in tumour volume to 281 mm^3. The biggest reduction in tumour volume to 159 mm^3 was observed when DTX was combined with SK-F (Fig. 5a). […] We have further investigated the effects of the used treatments on mouse whole-body toxicity. DTX has reduced body and liver weight, while SK-F had no significant effect (Table 1). DTX has induced significant anaemia and leukopenia, while the effects of SK-F were very moderate. In all cases, the effects of combined therapy were similar to DTX alone (Table 1). Liver function test was performed as a surrogate marker for chemotherapy-induced liver damage (Fig. 6). […] The combination therapy had similar toxicity profile to DTX alone, while exerting higher antitumour efficacy (Fig. 5a).

MDA-MB-231 cells = assay: MTT cell viability / proliferation assay; assay type: cell-based, human; conditions: for IC50: Homo sapiens
Procedure: Cellular viability was measured using the 3-(4,5-dimethylthiazol-2-yl)-2,5-diphenyltetrazolium bromide (MTT; 5 mg/ml) colorimetric assay as already described.
Fig. 4 Effect of compounds SK-A to SK-F on breast cancer cell viability. MDA-MB-231 cells were incubated with 1, 2, 5 and 10 µM of compounds SK-A to SK-F for up to 120 h. Cell proliferation was measured using MTT assay. Columns, means of three independent experiments normalised to control; bars, SEM. (*p < 0.05; **p < 0.01; ^§p < 0.001). IC50 levels for SK-F for 72, 96 and 120 h were 7, 4.5 and 3 µM, respectively

SK1 protein = SK1 protein level (Figure S9); assay type: cell-based

CCCCCCCCc1ccc(NC(=O)c2ccccc2)cc1 [SK-F]
effect on SK1 mRNA expression (SK1 mRNA): did not elicit any changes
liver function test toxicity profile [1]: milder toxicity profile
SK1 activity in cells versus vehicle ([2]; 1 µM): significantly decreased
inhibition at 1 µM ([2]; read-out: inhibition of SK1 activity in vitro): 48.2%
Hb [3]: 90 ± 8^a % of control ± SEM
WCC [3]: 78 ± 7 % of control ± SEM
Weight of Body [3]: 91 ± 6^ns % of control ± SEM
Weight of Kidney [3]: 118.2 ± 3.6 % of control ± SEM
Weight of Liver [3]: 106.7 ± 5.5^a % of control ± SEM
Weight of Lungs [3]: 117.7 ± 5.6 % of control ± SEM
Weight of Spleen [3]: 111.2 ± 13.4^a % of control ± SEM
effect on MDA-MB-231 cancer cell proliferation (MDA-MB-231 cells; 1, 2, 5 and 10 µM, up to 120 h): highest effect
IC50 (MDA-MB-231 cells; MDA-MB-231, 72 h): 7 µM
IC50 (MDA-MB-231 cells; MDA-MB-231, 96 h): 4.5 µM
IC50 (MDA-MB-231 cells; MDA-MB-231, 120 h): 3 µM
effect on SK1 protein (SK1 protein): did not induce any change
